The target of assay [1] is T1, human phosphodiesterase 5 (PDE 5) (Homo sapiens, UniProt O76074).
T1 construct: PDE 5 preparations are obtained from human platelets by disruption; from tissue; host or cells: human platelets
The assay can be described thus: Inhibition of human phosphodiesterase 5 (PDE 5). It is filed as biochemical. The conditions noted are these: PDE 5 preparation from human platelets; in some cases means of individual determinations. In short, it runs like this:
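Enzyme partially purified from human platelets by Mono Q ion exchange, diluted so that under 70% of substrate converts. [8-3H]cGMP at 0.025 μCi per well in Tris pH 7.5 with MgCl2/EDTA, 60 min at room temperature, yttrium SPA bead read-out. Final compound concentrations 4–0.0018 μM; IC50 from concentration–inhibition plot.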

For assay [2], the target named is T2, recombinant guanylate cyclase reporter cell line (Rattus norvegicus, UniProt P19686+P20595).
T2 construct: expressed in transfected cells
T2 sequence (P19686 1-690): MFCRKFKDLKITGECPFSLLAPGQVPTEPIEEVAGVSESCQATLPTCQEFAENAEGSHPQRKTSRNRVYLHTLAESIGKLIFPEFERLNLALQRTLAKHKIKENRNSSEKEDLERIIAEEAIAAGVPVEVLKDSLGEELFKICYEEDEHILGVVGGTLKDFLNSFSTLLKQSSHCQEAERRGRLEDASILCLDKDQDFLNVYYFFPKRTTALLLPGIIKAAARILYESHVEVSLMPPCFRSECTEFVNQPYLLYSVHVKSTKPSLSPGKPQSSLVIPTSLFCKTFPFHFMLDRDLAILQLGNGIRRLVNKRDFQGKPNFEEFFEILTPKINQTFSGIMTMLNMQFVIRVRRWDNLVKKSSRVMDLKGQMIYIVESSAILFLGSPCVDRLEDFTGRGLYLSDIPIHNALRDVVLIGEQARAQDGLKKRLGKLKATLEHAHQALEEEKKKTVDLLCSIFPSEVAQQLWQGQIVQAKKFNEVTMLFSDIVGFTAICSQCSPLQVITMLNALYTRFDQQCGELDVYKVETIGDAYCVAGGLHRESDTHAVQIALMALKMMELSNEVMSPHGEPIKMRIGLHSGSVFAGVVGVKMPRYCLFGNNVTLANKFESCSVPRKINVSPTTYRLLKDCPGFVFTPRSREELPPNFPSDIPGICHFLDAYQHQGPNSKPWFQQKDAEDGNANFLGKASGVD
T2 sequence (P20595 1-619): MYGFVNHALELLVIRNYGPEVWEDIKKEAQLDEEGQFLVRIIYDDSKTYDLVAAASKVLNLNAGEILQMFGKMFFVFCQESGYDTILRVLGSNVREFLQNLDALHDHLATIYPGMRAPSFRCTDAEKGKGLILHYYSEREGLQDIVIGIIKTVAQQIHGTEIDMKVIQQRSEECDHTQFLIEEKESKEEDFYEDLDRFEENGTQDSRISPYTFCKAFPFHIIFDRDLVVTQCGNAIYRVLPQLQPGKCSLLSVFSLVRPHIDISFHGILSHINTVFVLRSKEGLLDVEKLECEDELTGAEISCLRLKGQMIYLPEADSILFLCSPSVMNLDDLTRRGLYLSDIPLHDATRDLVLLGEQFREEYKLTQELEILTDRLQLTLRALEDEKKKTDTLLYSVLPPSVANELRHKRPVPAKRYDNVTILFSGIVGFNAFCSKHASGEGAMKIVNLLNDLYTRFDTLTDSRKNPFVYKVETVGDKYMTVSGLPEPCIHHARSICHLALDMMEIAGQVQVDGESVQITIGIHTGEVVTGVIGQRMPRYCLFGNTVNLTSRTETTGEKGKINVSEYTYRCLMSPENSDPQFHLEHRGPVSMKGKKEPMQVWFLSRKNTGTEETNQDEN
The assay can be described thus: Effect on a recombinant guanylate cyclase reporter cell line. It is filed as cell-based. Conditions: MEC = minimum effective concentration; in some cases means of individual determinations. The method, boiled down:
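Cellular activity measured in a recombinant rat soluble guanylate cyclase reporter cell line. Values are minimum effective concentration (MEC), some given as means of individual determinations.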

SMILES strings stand for the structures.

On to `CN(CC1CC1)C(=O)c1nc(-c2nn(Cc3ncccc3F)c3ncc(F)cc23)nc2c1C(C)(C)C(=O)N2` [Example 33], for which it took 110 nM to reach half-maximal inhibition in assay [1] (IC50). Also, the MEC in assay [2] was 0.1 µM.
On the same counts, the results for `CC1(C)C(=O)Nc2nc(-c3nn(Cc4ncccc4F)c4ncc(F)cc34)nc(C(=O)NC(C3CC3)C3CC3)c21` [Example 34] are 77 nM and 1 µM.
The like results for `CN(CCO)C(=O)c1nc(-c2nn(Cc3ncccc3F)c3ncc(F)cc23)nc2c1C(C)(C)C(=O)N2` [Example 35] were, in that order, 1300 nM and 10 µM.
The like results for `COCCNC(=O)c1nc(-c2nn(Cc3ncccc3F)c3ncc(F)cc23)nc2c1C(C)(C)C(=O)N2` [Example 36] were, in that order, 73 nM and 3 µM.
Take `Cc1nc2c(cc1F)c(-c1nc3c(c(C(=O)NC4CC4)n1)C(C)(C)C(=O)N3)nn2Cc1cccc(F)c1F` [Example 37]: the IC50 in assay [1] was 4 nM. The MEC in assay [2] amounted to 0.1 µM.
The like results for `Cc1nc2c(cc1F)c(-c1nc3c(c(C(=O)N(C)CC4CC4)n1)C(C)(C)C(=O)N3)nn2Cc1cccc(F)c1F` [Example 38] were, in that order, 770 nM and 0.01 µM.
The like results for `Cc1nc2c(cc1F)c(-c1nc3c(c(C(=O)NC(C4CC4)C4CC4)n1)C(C)(C)C(=O)N3)nn2Cc1cccc(F)c1F` [Example 39] were, in that order, 34 nM and 0.3 µM.
On the same counts, the results for `Cc1nc2c(cc1F)c(-c1nc3c(c(C(=O)N(C)CCO)n1)C(C)(C)C(=O)N3)nn2Cc1cccc(F)c1F` [Example 40] are 240 nM and 0.03 µM.
In turn, `COCCNC(=O)c1nc(-c2nn(Cc3cccc(F)c3F)c3nc(C)c(F)cc23)nc2c1C(C)(C)C(=O)N2` [Example 41] came in with an IC50 in assay [1] of 88 nM. Also, the MEC in assay [2] amounted to 0.065 µM.
On the same counts, the results for `CC1(C)C(=O)Nc2nc(-c3nn(Cc4ccccc4F)c4cc(Cl)ccc34)nc(C(=O)NCC3CC3)c21` [Example 42, 2-[6-Chloro-1-(2-fluorobenzyl)-1H-indazol-3-yl]-N-(cyclopropylmethyl)-5,5-dimethyl-6-oxo-6,7-dihydro-5H-pyrrolo[2,3-d]pyrimidine-4-carboxamide] are 74 nM and 0.3 µM.
On the same counts, the results for `CC1(C)C(=O)Nc2nc(-c3nn(Cc4ccccc4F)c4cc(Cl)ccc34)nc(C(=O)NC3CC3)c21` [Example 43] are 14 nM and 0.3 µM.
On the same counts, the results for `CC1(C)C(=O)Nc2nc(-c3nn(Cc4ccccc4F)c4cc(Cl)ccc34)nc(C(=O)NCC(F)(F)F)c21` [Example 44] are 110 nM and 0.3 µM.
`CC1(C)C(=O)Nc2nc(-c3nn(Cc4ccccc4F)c4cc(Cl)ccc34)nc(C(=O)NCCC(F)(F)F)c21` [Example 45]: the midpoint of inhibition in assay [1], the IC50, lay at 130 nM. Moreover, in assay [2], the MEC worked out at 0.3 µM.
The like results for `CN(C(=O)c1nc(-c2nn(Cc3ccccc3F)c3cc(Cl)ccc23)nc2c1C(C)(C)C(=O)N2)C1CC1` [Example 46] were, in that order, 1000 nM and 0.03 µM.
The like results for `CN(CC1CC1)C(=O)c1nc(-c2nn(Cc3ccccc3F)c3cc(Cl)ccc23)nc2c1C(C)(C)C(=O)N2` [Example 47] were, in that order, 730 nM and 0.03 µM.
Compound `CC1(C)C(=O)Nc2nc(-c3nn(Cc4ccccc4F)c4cc(Cl)ccc34)nc(C(=O)N3CCCC3)c21` [Example 48] showed an IC50 in assay [1] of 1100 nM. In addition, in assay [2], the MEC worked out at 0.1 µM.
On the same counts, the results for `CC1(C)C(=O)Nc2nc(-c3nn(Cc4ccccc4F)c4ncc(F)cc34)nc(C(=O)NCC3CC3)c21` [Example 49] are 33 nM and 0.1 µM.
On the same counts, the results for `CC1(C)C(=O)Nc2nc(-c3nn(Cc4ccccc4F)c4ncc(F)cc34)nc(C(=O)NCC(F)(F)F)c21` [Example 50] are 19 nM and 0.1 µM.
The compound `CC1(C)C(=O)Nc2nc(-c3nn(Cc4ccccc4F)c4ncc(F)cc34)nc(C(=O)NCCC(F)(F)F)c21` [Example 51] showed an IC50 in assay [1] of 87 nM. In assay [2], the MEC is 0.1 µM.
The compound `CN(C(=O)c1nc(-c2nn(Cc3ccccc3F)c3ncc(F)cc23)nc2c1C(C)(C)C(=O)N2)C1CC1` [Example 52] displayed an IC50 in assay [1] of 150 nM. The MEC in assay [2] was 0.01 µM.
On the same counts, the results for `CN(CC1CC1)C(=O)c1nc(-c2nn(Cc3ccccc3F)c3ncc(F)cc23)nc2c1C(C)(C)C(=O)N2` [Example 53] are 110 nM and 0.01 µM.
The like results for `CCC(CC)CNC(=O)c1nc(-c2nn(Cc3ccccc3F)c3ncccc23)nc2c1C(C)(C)C(=O)N2` [Example 59, N-(2-Ethylbutyl)-2-[1-(2-fluorobenzyl)-1H-pyrazolo[3,4-b]pyridin-3-yl]-5,5-dimethyl-6-oxo-6,7-dihydro-5H-pyrrolo[2,3-d]pyrimidine-4-carboxamide] were, in that order, 91 nM and 1 µM.
The like results for `CSCCCNC(=O)c1nc(-c2nn(Cc3ccccc3F)c3ncccc23)nc2c1C(C)(C)C(=O)N2` [Example 61, 2-[1-(2-fluorobenzyl)-1H-pyrazolo[3,4-b]pyridin-3-yl]-5,5-dimethyl-N-[3-(methylsulfanyl)propyl]-6-oxo-6,7-dihydro-5H-pyrrolo[2,3-d]pyrimidine-4-carboxamide] were, in that order, 16 nM and 0.1 µM.
Compound `C=CCONC(=O)c1nc(-c2nn(Cc3ccccc3F)c3ncccc23)nc2c1C(C)(C)C(=O)N2` [Example 62, 2-[1-(2-fluorobenzyl)-1H-pyrazolo[3,4-b]pyridin-3-yl]-5,5-dimethyl-6-oxo-N-(prop-2-en-1-yloxy)-6,7-dihydro-5H-pyrrolo[2,3-d]pyrimidine-4-carboxamide] registered an IC50 in assay [1] of 18 nM. For the same compound, the MEC in assay [2] was determined as 0.1 µM.
On the same counts, the results for `C[S+]([O-])CCNC(=O)c1nc(-c2nn(Cc3ccccc3F)c3ncccc23)nc2c1C(C)(C)C(=O)N2` (stereo not drawn) [Example 64, 2-[1-(2-fluorobenzyl)-1H-pyrazolo[3,4-b]pyridin-3-yl]-5,5-dimethyl-N-[2-(methylsulfinyl)ethyl]-6-oxo-6,7-dihydro-5H-pyrrolo[2,3-d]pyrimidine-4-carboxamide] are 74 nM and 1 µM.
The like results for `Cn1nccc1NC(=O)c1nc(-c2nn(Cc3ccccc3F)c3ncccc23)nc2c1C(C)(C)C(=O)N2` [Example 67, 2-[1-(2-fluorobenzyl)-1H-pyrazolo[3,4-b]pyridin-3-yl]-5,5-dimethyl-N-(1-methyl-1H-pyrazol-5-yl)-6-oxo-6,7-dihydro-5H-pyrrolo[2,3-d]pyrimidine-4-carboxamide] were, in that order, 2.6 nM and 0.3 µM.
The like results for `CC1(C)C(=O)Nc2nc(-c3nn(Cc4ccccc4F)c4ncccc34)nc(C(=O)NCc3ccco3)c21` [Example 69, 2-[1-(2-fluorobenzyl)-1H-pyrazolo[3,4-b]pyridin-3-yl]-N-(furan-2-ylmethyl)-5,5-dimethyl-6-oxo-6,7-dihydro-5H-pyrrolo[2,3-d]pyrimidine-4-carboxamide] were, in that order, 10 nM and 0.1 µM.

The values above are taken from patent US20170233413A1, “SUBSTITUTED ANNULATED PYRIMIDINES AND USE THEREOF” (Bayer Pharma Aktiengesellschaft, priority 2014, published 2017).
